Source: PMC11249953, “c-KIT inhibitors reduce pathology and improve behavior in the Tg(SwDI) model of Alzheimer’s disease” (Life Science Alliance, 2024)
Values joined by “and” are separate entries in the source; they are usually repeats but may differ in a detail not shown here. Identical values can stand only once.

Columns and labels:
FLT3 = target: T1, FLT3 (Homo sapiens, UniProt P36888); assay: KINOMEscan competition binding, FLT3; settings: 10 µM compound; for remaining binding at 10 µM: lower = stronger binding, read-out: FLT3 %Ctrl @ 10000nM (POC)
T1 construct: DNA label for qPCR read-out (T7 phage fusion or DNA tag); purchased Eurofins DiscoverX Corporation; host or cells: T7 phage in E. coli (BL21-derived) or HEK-293
T1 sequence (P36888 27-993): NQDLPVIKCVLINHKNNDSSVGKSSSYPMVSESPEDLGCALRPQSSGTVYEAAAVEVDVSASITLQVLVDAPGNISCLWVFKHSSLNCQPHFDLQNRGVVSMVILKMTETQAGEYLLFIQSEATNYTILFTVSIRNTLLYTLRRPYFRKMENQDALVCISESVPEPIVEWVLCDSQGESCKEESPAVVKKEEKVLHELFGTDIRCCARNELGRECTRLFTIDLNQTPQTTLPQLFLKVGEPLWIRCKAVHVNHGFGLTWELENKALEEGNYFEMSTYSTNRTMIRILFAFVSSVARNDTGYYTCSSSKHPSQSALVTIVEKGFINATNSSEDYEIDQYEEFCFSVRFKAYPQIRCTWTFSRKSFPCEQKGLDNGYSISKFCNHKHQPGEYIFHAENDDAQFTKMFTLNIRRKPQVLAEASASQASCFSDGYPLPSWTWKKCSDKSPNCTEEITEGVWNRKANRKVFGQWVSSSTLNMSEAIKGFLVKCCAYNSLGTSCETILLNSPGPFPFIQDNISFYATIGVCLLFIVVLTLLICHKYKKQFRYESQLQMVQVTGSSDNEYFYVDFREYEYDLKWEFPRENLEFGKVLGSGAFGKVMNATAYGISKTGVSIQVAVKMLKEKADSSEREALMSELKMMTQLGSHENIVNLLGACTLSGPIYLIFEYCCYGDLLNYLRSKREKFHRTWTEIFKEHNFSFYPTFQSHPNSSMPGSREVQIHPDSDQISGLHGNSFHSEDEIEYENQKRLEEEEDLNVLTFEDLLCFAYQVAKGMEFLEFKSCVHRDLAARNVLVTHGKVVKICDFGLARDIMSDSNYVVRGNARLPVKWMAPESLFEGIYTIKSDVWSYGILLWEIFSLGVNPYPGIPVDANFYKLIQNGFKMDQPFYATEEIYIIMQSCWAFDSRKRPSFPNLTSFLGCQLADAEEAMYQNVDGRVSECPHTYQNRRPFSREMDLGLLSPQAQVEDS
Method: The KINOMEscan screening platform (Eurofins DiscoverX Corporation) was performed using active site-directed competition binding assay to quantitatively measure interactions between BK40143 and BK40197 and more than 450 human kinases and disease relevant mutant variants. […] Screening “hits” are identified by measuring the amount of kinase captured in test (BK40143 and BK40197) versus control samples by using a quantitative and ultra-sensitive qRT-PCR method that detects the associated DNA label. BK40143 and BK40197 were screened at 10 µM concentration, and results for primary screen binding interactions were reported as “% Ctrl” (POC), where lower numbers indicate stronger hits and calculated as follows: [test compound signal−positive control signal/negative control signal−positive control signal]×100
negative control = DMSO (100% Ctrl)
positive control = control compound (0% Ctrl)
Based on screening data from of profiled compounds, a proportional relationship between primary screening results and corresponding compound/target affinities can be described as binding constants (Kd values) for the indicated ranges of POC values with tighter binding (higher affinity) interactions associated with lower POC values and weaker binding (lower affinity) associated with higher POC values. Briefly, kinase-tagged T7 phage strains were grown in parallel in 24-well blocks in an E. coli host derived from the BL21 strain. E. coli were grown to log-phase and infected with T7 phage from a frozen stock (multiplicity of infection = 0.4) and incubated with shaking at 32°C until lysis (90–150 min). The lysates were centrifuged (6,000g) and filtered (0.2 μm) to remove cell debris. The remaining kinases were produced in HEK-293 cells and subsequently tagged with DNA for qRT-PCR detection. Streptavidin-coated magnetic beads were treated with biotinylated small molecule ligands for 30 min at RT to generate affinity resins for kinase assays. The liganded beads were blocked with excess biotin and washed with blocking buffer (1% BSA, 0.05% Tween 20, 1 mM DTT; SeaBlock [Pierce]) to remove unbound ligand and to reduce non-specific phage binding. Binding reactions were assembled by combining kinases, liganded affinity beads, and test compounds in 1x binding buffer (20% 0.17x PBS, 0.05% Tween 20, 6 mM DTT; SeaBlock). Test compounds were prepared as 100x stocks in 100% DMSO and directly diluted into the assay. All reactions were performed in polypropylene 384-well plates in a final volume of 0.02 ml. The assay plates were incubated at RT with shaking for 1 h and the affinity beads were washed with wash buffer (1x PBS, 0.05% Tween 20). […] The kinase concentration in the eluates was measured by qRT-PCR.

mice = assay: Nesting, source data sheets Nesting (mouse line not given); type: in vivo; set-up: key to Nesting Score AVG (of three observers) / Nesting Score AVG, group mean / Nesting Score / Nesting Score AVG: 0 = nestlet untouched to 5 = near perfect nest; key to Nesting Score (NICK) / Nesting Score (MICHAELINE) / Nesting Score(MAX) / Nesting Score (KORLISS): 0: nestlet untouched; 1: nestlet hardly touched (more than 90% intact); 2: nestlet partially torn (50–90% intact); 3: mostly shredded but no identifiable nest, less than 50% intact but less than 90% in a single quarter of the cage; 4: An identifiable but flat nest, more than 90% torn and material is gathered in a single quarter of the cage; 5: A near perfect nest, more than 90% of the nestlet is torn and the nest is a crater, with walls higher than the mouse body height; settings: for Nesting Score (MICHAELINE): observer MICHAELINE; for Nesting Score (NICK): observer NICK
Method: Mice were singly housed in standard cages overnight (6 pm–6 am) with a 3-gram cloth nestlet and allowed to freely behave. The next day, nestlets were weighed and photographed, and amount of nestlet shredding was recorded by three observers based on the following scale: 0—nestlet untouched, 1—nestlet hardly touched (more than 90% intact), 2—nestlet partially torn (50–90% intact), 3—mostly shredded but no identifiable nest, less than 50% intact but less than 90% in a single quarter of the cage, 4—An identifiable but flat nest, more than 90% torn and material is gathered in a single quarter of the cage, 5—A near perfect nest, more than 90% of the nestlet is torn and the nest is a crater, with walls higher than the mouse body height.

[1] = 2.5mg/kg, individual mice, listed as 143
[2] = 5.0mg/kg, individual mice, listed as 143

Cc1cccc(-c2cc3nccc(N4CCOCC4)c3s2)c1 [BK40197] was tested, and the inhibition at 10 µM (FLT3) was 89%, the remaining binding at 10 µM (FLT3) was 11% and the “Nesting Score” value (mice; average score of the raters listed by treatment group, one value per mouse, listed as 197) was 2 and 1 and 0.5 and 0 and 3. The “Nesting Score AVG” value (mice; nesting, average of the raters, one value per mouse, listed as 197) was 2 and 1 and 3 and 0.5 and 0, the “Nesting Score (KORLISS)” value (mice; nesting, rater KORLISS, one value per mouse, listed as 197) was 2 (nestlet partially torn (50–90% intact)) and 1 (nestlet hardly touched (more than 90% intact)) and 4 and 0 and the “Nesting Score(MAX)” value (mice; nesting, rater MAX, one value per mouse, listed as 197) was 2 (nestlet partially torn (50–90% intact)) and 1 (nestlet hardly touched (more than 90% intact)) and 0. The Weight (mice; nestlet weight listed by treatment group, one value per mouse, listed as 197, in g (unit assumed)) was 2.1 and 2.8 and 2.5 and 2.6 and 2.9 and 1.7.

For Cc1cccc(-c2cc3nccc(Nc4ccccc4)c3s2)c1 [BK40143], the inhibition at 10 µM (FLT3) was 95.3%, the remaining binding at 10 µM (FLT3) was 4.7% and the “Nesting Score AVG, group mean” value (mice; 2.5mg/kg) was 0.9048. The “Nesting Score AVG (of three observers)” value (mice; [1]) was 0 and 1.333 and 2.667 and 1, the “Nestlet Weight” value (mice; 2.5mg/kg, individual mice, listed as 143, in g (unit assumed)) was 2.6 and 2.8 and 2.7 and 0.9 and 2.5 and the “Nesting Score(MAX)” value (mice; 2.5mg/kg, observer MAX, individual mice, listed as 143) was 0 and 2 (nestlet partially torn (50–90% intact)) and 3 (mostly shredded but no identifiable nest, less than 50% intact but less than 90% in a single quarter of the cage) and 1 (nestlet hardly touched (more than 90% intact)). For the same compound, the “Nesting Score (MICHAELINE)” value (mice; [1]) was 0 and 1 (nestlet hardly touched (more than 90% intact)) and 2 (nestlet partially torn (50–90% intact)), the “Nesting Score (NICK)” value (mice; [1]) was 0 and 1 (nestlet hardly touched (more than 90% intact)) and 3 (mostly shredded but no identifiable nest, less than 50% intact but less than 90% in a single quarter of the cage) and the “Nesting Score AVG, group mean” value (mice; 5.0mg/kg) was 1.067. For the same compound, the “Nesting Score AVG (of three observers)” value (mice; [2]) was 1.333 and 0.3333 and 1 and 2 and 0.6667 and 3.667 and 0, the “Nestlet Weight” value (mice; 5.0mg/kg, individual mice, listed as 143, in g (unit assumed)) was 2.5 and 2.7 and 2.1 and 2.6 and 2.9 and 0 and the “Nesting Score(MAX)” value (mice; 5.0mg/kg, observer MAX, individual mice, listed as 143) was 2 (nestlet partially torn (50–90% intact)) and 1 (nestlet hardly touched (more than 90% intact)) and 4 and 0. The “Nesting Score (MICHAELINE)” value (mice; [2]) was 1 (nestlet hardly touched (more than 90% intact)) and 0 and 2 (nestlet partially torn (50–90% intact)) and 3 (mostly shredded but no identifiable nest, less than 50% intact but less than 90% in a single quarter of the cage) and the “Nesting Score (NICK)” value (mice; [2]) was 1 (nestlet hardly touched (more than 90% intact)) and 0 and 2 (nestlet partially torn (50–90% intact)) and 4.
